The IC50 is the concentration at which inhibition is half-maximal. Low values mean greater potency, high ones weaker potency.

From ChEMBL document CHEMBL5465560, “Selectivity Literature for EUbOPEN Chemogenomic Library” (2024) come the findings set out here.

Assay [1] has as its target Mitogen-activated protein kinase 14 (Homo sapiens, UniProt Q16539). Description: Selectivity interaction (Ambit KINOMEscan and KiNATiv profiling in Jurkat cells) EUB0000090b MAPK14. The class given is cell-based. To be noted: at 1 µM.
In assay [2] the target is Protein kinase C theta type (Homo sapiens, UniProt Q04759). The following applies: at 10 µM.
Assay [3] has as its target Dual specificity testis-specific protein kinase 1 (Homo sapiens) (UniProt Q15569). Nature of the assay: Selectivity interaction (KinomeScan (DiscoverX)) EUB0001079a TESK1. The following applies: at 1 µM.
The target in assay [4] is Tyrosine-protein kinase Yes (Homo sapiens) (UniProt P07947). Nature of the assay: Selectivity interaction (KinomeScan (DiscoverX)) EUB0001079a YES1. The following applies: at 1 µM.
The target in assay [5] is Polycomb protein SUZ12 (Homo sapiens) (UniProt Q15022). Nature of the assay: Selectivity interaction (Methyltransferase screen (Scintillation proximity assays)) EUB0000255b SUZ12. Background: Scintillation proximity formats need no separation of bound from free tracer.
For assay [6], the target named is T1, Dual specificity mitogen-activated protein kinase kinase 4 (Homo sapiens) (UniProt P45985).
T1 sequence (whole entry): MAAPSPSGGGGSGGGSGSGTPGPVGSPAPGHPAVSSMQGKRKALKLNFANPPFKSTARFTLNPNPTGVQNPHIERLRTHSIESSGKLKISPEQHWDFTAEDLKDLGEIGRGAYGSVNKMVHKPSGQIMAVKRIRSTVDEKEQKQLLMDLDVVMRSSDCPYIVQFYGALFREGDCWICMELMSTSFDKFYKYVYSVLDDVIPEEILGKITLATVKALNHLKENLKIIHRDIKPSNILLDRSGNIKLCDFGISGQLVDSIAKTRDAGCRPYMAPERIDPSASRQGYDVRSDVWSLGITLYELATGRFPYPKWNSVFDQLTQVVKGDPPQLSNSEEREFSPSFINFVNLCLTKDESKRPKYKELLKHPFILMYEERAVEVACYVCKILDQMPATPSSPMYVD
Nature of the assay: Selectivity interaction (KinomeScan (DiscoverX)) EUB0001049a MAP2K4. The following applies: at 1 µM.

Assay [7] has as its target T2, Testis-specific serine/threonine-protein kinase 1 (Homo sapiens) (UniProt Q9BXA7).
T2 sequence (whole entry): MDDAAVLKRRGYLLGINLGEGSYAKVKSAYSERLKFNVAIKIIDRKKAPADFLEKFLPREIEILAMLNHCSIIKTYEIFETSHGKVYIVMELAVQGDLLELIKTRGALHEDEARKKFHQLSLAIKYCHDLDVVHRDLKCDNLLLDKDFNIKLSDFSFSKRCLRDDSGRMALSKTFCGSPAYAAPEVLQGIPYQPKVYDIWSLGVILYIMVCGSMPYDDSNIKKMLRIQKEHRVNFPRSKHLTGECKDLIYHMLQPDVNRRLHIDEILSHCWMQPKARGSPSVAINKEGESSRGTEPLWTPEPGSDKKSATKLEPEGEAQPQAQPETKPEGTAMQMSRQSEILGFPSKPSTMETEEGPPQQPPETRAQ
Nature of the assay: Selectivity interaction (KinomeScan (DiscoverX)) EUB0000666a TSSK1A. To be noted: at 10 µM.

Assay [8] deals with Serine/threonine-protein kinase PAK 4 (Homo sapiens, UniProt O96013). Description: Selectivity interaction (Kinase panel (Z-LYTE Assay)) EUB0001632a PAK4. The following applies: at 10 µM.
Another assay has as its target Misshapen-like kinase 1 (Homo sapiens, UniProt Q8N4C8). Nature of the assay: Selectivity interaction (KinomeScan (DiscoverX)) EUB0000607a MINK1. The following applies: at 10 µM.
Assay [9] addresses T3, Serine/threonine-protein kinase ULK3 (Homo sapiens) (UniProt Q6PHR2).
T3 sequence (whole entry): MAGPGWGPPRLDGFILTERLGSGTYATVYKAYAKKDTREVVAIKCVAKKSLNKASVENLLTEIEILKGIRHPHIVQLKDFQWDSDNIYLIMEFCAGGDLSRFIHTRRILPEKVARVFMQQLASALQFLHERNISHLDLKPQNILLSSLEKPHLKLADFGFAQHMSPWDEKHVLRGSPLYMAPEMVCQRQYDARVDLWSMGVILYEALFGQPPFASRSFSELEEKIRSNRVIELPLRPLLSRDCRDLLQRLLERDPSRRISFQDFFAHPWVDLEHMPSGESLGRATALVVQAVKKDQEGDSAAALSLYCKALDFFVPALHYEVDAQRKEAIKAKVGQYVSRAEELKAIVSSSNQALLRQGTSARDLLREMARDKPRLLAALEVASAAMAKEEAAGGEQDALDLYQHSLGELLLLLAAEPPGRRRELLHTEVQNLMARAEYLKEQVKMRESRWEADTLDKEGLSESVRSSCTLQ
Nature of the assay: Selectivity interaction (KinomeScan (DiscoverX)) EUB0000607a ULK3. To be noted: at 10 µM.

Assay [10] concerns the target Serine/threonine-protein kinase MARK1 (Homo sapiens) (UniProt Q9P0L2). Nature of the assay: Selectivity interaction (KinomeScan (DiscoverX)) EUB0000229b MARK1. The following applies: at 10 µM.
Assay [11] has as its target Serine/threonine-protein kinase RIO2 (Homo sapiens) (UniProt Q9BVS4). Nature of the assay: Selectivity interaction (KinomeScan (DiscoverX)) EUB0000229b RIOK2. The following applies: at 10 µM.
Assay [12] concerns the target T4, Non-receptor tyrosine-protein kinase TNK1 (Homo sapiens) (UniProt Q13470).
T4 sequence (whole entry): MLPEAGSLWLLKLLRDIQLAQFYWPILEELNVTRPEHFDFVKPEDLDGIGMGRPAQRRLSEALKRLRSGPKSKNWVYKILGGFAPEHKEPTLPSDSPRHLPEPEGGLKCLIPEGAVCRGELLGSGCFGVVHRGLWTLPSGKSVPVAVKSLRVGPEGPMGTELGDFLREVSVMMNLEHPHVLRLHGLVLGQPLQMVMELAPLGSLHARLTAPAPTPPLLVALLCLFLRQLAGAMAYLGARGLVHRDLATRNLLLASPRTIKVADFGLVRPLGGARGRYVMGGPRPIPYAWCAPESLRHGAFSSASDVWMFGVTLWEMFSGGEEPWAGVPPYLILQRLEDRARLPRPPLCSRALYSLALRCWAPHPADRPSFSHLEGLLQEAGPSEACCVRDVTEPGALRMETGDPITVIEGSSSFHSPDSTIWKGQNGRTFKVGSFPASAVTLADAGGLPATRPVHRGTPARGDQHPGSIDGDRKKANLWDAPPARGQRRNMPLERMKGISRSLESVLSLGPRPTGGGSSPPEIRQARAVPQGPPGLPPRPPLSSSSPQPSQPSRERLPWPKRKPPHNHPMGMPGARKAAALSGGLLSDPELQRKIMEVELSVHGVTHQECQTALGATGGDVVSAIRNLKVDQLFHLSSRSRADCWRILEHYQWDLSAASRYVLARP
Nature of the assay: Selectivity interaction (KinomeScan (DiscoverX)) EUB0000595a TNK1. The following applies: at 10 µM.

In assay [13] the target is Serine/threonine-protein kinase WNK3 (Homo sapiens) (UniProt Q9BYP7). Description: Selectivity interaction (ActivX KiNativ screen (ex vivo kinase selectivity in human PBMCs)) EUB0001619a WNK3. The class given is cell-based. The following applies: PBMC, at 1 µM.
Assay [14] addresses Casein kinase I isoform alpha (Homo sapiens, UniProt P48729). Nature of the assay: Selectivity interaction (Enzymatic assay) EUB0001199aCl CSNK1A1.

Sequence of Polycomb protein SUZ12 (Homo sapiens) (Q15022 whole entry): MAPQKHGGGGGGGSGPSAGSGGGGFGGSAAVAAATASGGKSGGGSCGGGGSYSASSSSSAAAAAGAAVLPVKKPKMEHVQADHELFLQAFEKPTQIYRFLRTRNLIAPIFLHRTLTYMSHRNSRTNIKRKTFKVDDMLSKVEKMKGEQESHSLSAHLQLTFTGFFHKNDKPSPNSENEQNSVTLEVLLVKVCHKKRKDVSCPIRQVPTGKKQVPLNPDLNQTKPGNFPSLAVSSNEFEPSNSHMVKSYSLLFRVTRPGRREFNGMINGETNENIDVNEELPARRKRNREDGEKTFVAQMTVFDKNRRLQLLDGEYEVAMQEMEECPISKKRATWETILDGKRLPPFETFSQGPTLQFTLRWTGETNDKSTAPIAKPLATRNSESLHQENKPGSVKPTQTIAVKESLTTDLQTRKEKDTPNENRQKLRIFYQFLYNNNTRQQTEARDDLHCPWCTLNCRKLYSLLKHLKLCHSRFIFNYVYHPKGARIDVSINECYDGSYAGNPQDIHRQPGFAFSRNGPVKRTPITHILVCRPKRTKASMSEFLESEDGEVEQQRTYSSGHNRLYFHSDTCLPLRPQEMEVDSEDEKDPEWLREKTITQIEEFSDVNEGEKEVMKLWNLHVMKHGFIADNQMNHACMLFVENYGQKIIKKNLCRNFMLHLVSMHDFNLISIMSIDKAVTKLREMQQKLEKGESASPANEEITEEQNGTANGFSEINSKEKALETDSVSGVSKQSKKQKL
Sequence of Serine/threonine-protein kinase RIO2 (Homo sapiens) (Q9BVS4 whole entry, looked up): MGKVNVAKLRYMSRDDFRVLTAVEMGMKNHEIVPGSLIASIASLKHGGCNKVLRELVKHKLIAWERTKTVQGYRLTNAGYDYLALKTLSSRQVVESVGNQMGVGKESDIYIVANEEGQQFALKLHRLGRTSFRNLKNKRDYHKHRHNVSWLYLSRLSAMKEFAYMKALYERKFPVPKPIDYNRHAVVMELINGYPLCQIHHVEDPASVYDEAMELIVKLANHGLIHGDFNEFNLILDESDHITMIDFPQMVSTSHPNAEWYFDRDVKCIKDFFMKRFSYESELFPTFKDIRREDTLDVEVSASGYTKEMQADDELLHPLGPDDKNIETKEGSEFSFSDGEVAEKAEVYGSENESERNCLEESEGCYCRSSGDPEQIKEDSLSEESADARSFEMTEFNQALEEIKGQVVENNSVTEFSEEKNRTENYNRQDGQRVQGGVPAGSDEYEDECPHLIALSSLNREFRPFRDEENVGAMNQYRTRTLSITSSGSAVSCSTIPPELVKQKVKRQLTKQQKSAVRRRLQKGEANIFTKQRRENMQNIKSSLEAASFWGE
Sequence of Protein kinase C theta type (Q04759 whole entry, looked up): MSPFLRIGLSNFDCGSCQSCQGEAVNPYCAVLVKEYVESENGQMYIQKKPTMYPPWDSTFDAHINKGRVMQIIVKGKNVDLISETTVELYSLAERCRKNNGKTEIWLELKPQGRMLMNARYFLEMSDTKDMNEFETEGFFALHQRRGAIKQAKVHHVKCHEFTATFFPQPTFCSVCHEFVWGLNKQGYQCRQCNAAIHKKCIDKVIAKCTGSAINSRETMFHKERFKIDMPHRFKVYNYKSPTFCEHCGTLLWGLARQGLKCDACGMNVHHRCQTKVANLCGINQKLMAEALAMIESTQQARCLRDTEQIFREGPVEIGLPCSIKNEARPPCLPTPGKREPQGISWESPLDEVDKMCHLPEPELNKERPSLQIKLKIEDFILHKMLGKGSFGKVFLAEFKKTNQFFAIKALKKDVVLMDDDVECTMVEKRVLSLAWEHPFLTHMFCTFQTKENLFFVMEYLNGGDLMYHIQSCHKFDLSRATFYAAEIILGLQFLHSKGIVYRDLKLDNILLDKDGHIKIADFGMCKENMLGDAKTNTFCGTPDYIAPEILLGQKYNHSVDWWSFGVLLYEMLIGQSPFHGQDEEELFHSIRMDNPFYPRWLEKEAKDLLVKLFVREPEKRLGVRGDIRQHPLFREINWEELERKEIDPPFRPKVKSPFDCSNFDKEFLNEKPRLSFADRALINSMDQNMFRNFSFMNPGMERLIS
Sequence of Mitogen-activated protein kinase 14 (Q16539 whole entry): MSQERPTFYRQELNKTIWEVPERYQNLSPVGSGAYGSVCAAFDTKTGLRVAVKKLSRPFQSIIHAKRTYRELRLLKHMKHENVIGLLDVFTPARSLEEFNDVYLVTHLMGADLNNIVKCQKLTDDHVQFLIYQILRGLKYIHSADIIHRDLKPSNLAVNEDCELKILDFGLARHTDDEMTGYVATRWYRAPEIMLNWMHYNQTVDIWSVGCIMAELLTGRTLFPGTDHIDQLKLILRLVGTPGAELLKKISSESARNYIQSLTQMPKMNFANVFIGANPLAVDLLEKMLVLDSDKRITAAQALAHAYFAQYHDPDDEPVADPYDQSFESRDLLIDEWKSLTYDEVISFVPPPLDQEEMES
Sequence of Serine/threonine-protein kinase WNK3 (Homo sapiens) (Q9BYP7 whole entry, canonical isoform): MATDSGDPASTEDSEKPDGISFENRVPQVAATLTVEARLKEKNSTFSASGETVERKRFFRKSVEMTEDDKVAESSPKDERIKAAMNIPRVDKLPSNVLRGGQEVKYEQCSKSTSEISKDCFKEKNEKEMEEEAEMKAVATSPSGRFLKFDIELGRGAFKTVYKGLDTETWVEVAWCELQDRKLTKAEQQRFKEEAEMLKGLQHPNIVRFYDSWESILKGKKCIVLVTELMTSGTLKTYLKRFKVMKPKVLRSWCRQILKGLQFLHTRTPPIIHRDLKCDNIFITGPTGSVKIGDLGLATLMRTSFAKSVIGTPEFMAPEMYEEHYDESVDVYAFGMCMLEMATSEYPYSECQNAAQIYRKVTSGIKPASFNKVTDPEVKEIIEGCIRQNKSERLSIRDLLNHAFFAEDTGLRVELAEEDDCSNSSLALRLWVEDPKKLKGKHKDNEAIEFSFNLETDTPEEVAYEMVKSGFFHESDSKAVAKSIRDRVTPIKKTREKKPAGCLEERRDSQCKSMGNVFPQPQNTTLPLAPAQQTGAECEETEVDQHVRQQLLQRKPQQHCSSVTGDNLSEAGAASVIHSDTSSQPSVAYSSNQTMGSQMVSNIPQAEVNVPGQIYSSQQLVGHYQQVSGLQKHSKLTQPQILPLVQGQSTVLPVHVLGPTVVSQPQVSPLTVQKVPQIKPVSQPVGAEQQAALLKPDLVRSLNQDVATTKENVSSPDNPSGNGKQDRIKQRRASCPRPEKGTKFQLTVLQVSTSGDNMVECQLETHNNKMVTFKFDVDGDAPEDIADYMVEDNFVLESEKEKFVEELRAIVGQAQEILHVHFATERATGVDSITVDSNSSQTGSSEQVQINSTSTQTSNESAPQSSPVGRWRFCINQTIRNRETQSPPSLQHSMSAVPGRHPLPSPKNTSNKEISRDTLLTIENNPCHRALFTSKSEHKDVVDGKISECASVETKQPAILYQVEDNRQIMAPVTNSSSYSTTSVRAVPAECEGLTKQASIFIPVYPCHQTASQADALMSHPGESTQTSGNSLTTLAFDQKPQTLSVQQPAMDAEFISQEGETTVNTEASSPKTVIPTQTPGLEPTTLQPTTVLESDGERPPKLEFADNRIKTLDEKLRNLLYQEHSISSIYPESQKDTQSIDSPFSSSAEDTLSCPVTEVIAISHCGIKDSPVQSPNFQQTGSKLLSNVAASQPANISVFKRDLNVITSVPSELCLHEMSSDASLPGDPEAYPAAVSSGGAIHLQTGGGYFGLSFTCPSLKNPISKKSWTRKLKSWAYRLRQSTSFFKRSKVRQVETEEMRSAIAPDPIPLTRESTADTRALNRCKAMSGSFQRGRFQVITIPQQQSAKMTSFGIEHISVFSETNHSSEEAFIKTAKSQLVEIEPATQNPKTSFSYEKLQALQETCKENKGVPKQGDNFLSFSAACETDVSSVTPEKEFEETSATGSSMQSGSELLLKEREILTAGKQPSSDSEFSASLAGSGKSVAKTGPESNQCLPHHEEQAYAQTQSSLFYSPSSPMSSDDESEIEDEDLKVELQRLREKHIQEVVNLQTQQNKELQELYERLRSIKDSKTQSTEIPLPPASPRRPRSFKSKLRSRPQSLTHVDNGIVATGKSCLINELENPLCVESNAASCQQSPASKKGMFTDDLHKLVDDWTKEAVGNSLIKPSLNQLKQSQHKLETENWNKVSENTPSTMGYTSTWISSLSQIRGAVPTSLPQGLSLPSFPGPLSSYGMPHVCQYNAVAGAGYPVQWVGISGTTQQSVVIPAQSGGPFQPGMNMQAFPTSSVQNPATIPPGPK
Sequence of Dual specificity testis-specific protein kinase 1 (Homo sapiens) (Q15569 whole entry, looked up): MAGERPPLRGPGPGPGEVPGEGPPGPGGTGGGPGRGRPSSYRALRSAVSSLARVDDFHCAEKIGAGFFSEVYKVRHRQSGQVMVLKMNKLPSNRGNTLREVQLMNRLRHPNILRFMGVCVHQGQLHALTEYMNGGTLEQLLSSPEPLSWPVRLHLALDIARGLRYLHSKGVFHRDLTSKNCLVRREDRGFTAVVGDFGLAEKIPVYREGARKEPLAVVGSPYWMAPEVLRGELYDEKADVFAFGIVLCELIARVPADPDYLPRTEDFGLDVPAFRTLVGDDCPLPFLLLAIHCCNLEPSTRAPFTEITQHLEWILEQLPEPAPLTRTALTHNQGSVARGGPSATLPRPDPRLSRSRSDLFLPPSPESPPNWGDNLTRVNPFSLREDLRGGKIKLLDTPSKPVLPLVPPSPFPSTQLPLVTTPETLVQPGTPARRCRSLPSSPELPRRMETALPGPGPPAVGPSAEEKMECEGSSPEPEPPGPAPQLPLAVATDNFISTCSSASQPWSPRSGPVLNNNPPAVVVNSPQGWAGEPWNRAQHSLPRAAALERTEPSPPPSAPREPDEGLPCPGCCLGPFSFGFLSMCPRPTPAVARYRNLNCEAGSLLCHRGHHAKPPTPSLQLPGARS

`CN(C)C/C=C/C(=O)Nc1ccc(C(=O)N2CCCC(Nc3ncc(Cl)c(-c4c[nH]c5ccccc45)n3)C2)cc1` (stereo unspecified): in assay [1], the % of control came to 92%.
Compound `CCN(CC)CCCCNc1ncc2cc(-c3cc(OC)cc(OC)c3)c(NC(=O)NC(C)(C)C)nc2n1` yielded a % of control in assay [2] of 100%.
Consider `Nc1cnc(N2CCc3cc(S(=O)(=O)Nc4c(F)cc(Cl)cc4F)cc(N4CCCC4=O)c32)nc1` [TP-020n], for which the % of control in assay [3] and in assay [4] was 100% throughout.
As for `COCCN1CCC(c2cc(CN(C)C(=O)c3cccc(Oc4ccccc4)c3)ccn2)CC1`, the results for the % activity in assay [5] (at 1 µM) and in assay [5] (at 10 µM) were more than 95% and more than 90%, respectively.
`COc1cc(Nc2nc(C)cc(-c3cnn4nc(OC)ccc34)n2)cc(C(F)(F)F)c1` showed a % of control in assay [6] of 74%.
For the compound `O=C(NOC[C@H](O)CO)c1ccc(F)c(F)c1Nc1ccc(I)cc1F`, in [7], the % of control was 100%.
Take `Cn1cc(-n2cnc3c(NCc4nc5cc(Cl)c(Cl)cc5[nH]4)nc(N4CCOCC4)nc32)cn1`: the % of control in assay [8] came to 7.15%.
In the case of `CNC(=O)Nc1ccc(-c2nc(N3CC4CCC(C3)O4)c3cnn(C4CCC5(CC4)OCCO5)c3n2)cc1`, the figures for the % of control (on Misshapen-like kinase 1; in assay [9]) were 100% and 92%, respectively.
As for `COc1cc(N(C)c2ccnc3ccc(C(F)(F)F)cc23)cc(OC)c1OC`, the % binding came out at 98% in assay [10] and 44% in assay [11].
Regarding `COCC(=O)NC/C=C/c1ccc2ncnc(Nc3ccc(Oc4ccc(C)nc4)c(C)c3)c2c1` [CP-724714], the % of control in [12] is 86%.
With `N#Cc1cccc(-c2c[nH]c3ncnc(N4CCOCC4)c23)c1`, in [13], the % of inhibition was -6%.
The compound `CN1Cc2nccc(-c3cn(C)nc3-c3ccc(F)cc3)c2C1=O` came in with an IC50 in assay [14] of 630 nM.
